Usually IC50 stands for the concentration that gives 50% inhibition. Read a high IC50 as a need for much substance. The EC50 is the midpoint of the concentration-response curve. A higher EC50 goes with a need for much substance.

These results are taken from patent US8969375B2, “CDK9 kinase inhibitors” (AbbVie Inc., priority 2013, dated 2015).

The target of one series is T1, CDK9/Cyclin T1 (Homo sapiens, UniProt P50750).
T1 construct: purchased Carna Biosciences 04-110
In words: CDK9 enzyme activity, LANCE ULight TR-FRET kinase assay. The series is classed as biochemical. Conditions: 1000 μM ATP, 4 nM CDK9/Cyclin T1, 30 minutes. Here is the method:
CDK9 enzyme activities were measured using LANCE ULight TR-FRET kinase assay reagents (PerkinElmer, Waltham, Mass.). Compounds were directly added in 100% DMSO to white low volume assay plates (Perkin Elmer Proxiplate 6008289) using a Labcyte Echo acoustic dispenser. Assay reagents in serine/threonine kinase assay buffer containing 20 mM HEPES, 10 mM MgCl2, 100 mM Na3VO4, and 0.0075% Triton X-100. were added for final reaction mixture concentrations of 1000 μM ATP, 100 nM U-light MBP peptide (Perkin Elmer TRF0109M) and reaction initiated with 4 nM CDK9/Cyclin T1 (Carna Biosciences 04-110). The kinase reaction was carried out for 30 minutes before addition of stopping buffer to a final of 20 mM EDTA and 0.5 nM of LANCE Ultra Europium anti-phospho-MBP antibody (PerkinElmer TRF0201M) in LANCE detection buffer (PerkinElmer CR97-100). The reaction was equilibrated for 1 hour and the signal read in the Perkin Elmer Envision in TR-FRET mode (excitation at 320 nm and emission at 615/665 nm).

In the next series the test system is H929 cells. Put plainly: Cell viability assay (Cell TiterGlo), H929 cells. The series is classed as cell-based, human. The method, then: (§1) Cell viability assays were performed using A431 or H929 cells. A431 cells were seeded in 96-well plates at 10,000 cells/well, and after overnight incubation, treated with compounds at 2-times the final concentration to result in a dose response of 3-fold dilutions from 10 μM to 0.0005 μM (50 μL/well, 0.1% final DMSO concentration). H929 cells were seeded in 96-well plates at 10,000 cells/well and treated immediately with compounds as described above. After 24 hours at 37° C., cell viability was measured using Cell TiterGlo reagent (Promega) with a luminescence reader. Alternately, cell viability assays were performed in 384-well format. A431 cells were seeded in 384-well plates at 2500 cells/well and, after overnight incubation, treated with compounds in a dose response of 3-fold dilutions from 10 μM to 0.0005 μM ([…], 0.1% final DMSO concentration). For the H929 viability assay, […] of the compounds was dispensed into 384-well plates in a dose response as described above and cells were immediately seeded in 384-well plates at 2500 cells/well. After 24 hours at […], cell viability was measured using Cell TiterGlo reagent (Promega) with a luminescence reader.

For the next series, the system named is A431 cells. In words: Cell viability assay (Cell TiterGlo), A431 cells. Format: cell-based. The method, then: as §1
In general terms: Cellular ATP, detected with luciferase, serves as a proxy for viable cell number.

In the next series the test system is H929 xenograft tumors. Put plainly: Xenograft tumor growth inhibition assay, H929 human multiple myeloma xenograft. Format: in vivo, mice. Conditions: IP, TW x 3; for % TGD (tumor growth delay): (T − C)/C × 100, median time to endpoint; for % TGI: female nude or SCID-beige mice, end of treatment period; for % removed from study: removed due to morbidity or weight loss in excess of 20%. The method, then:
Xenograft Tumor Growth Inhibition Assay
The effect of Examples 1, 4, and 5 to inhibit the growth of H929 xenograft tumors implanted in mice was evaluated. NCI-H929 cells obtained from culture were suspended in cell culture medium (MEM, no calcium, no glutamine, Life Technologies Corporation) and diluted 1:1 with a solution of Matrigel™ (BD Biosciences, Franklin Lakes, N.J.). Tumor cells 5 million per site were inoculated subcutaneously into the right hind flank of female nude or SCID-beige mice (Charles River Labs).
Randomization into treatment and vehicle control groups (9-10/group) occurred when the mean tumor volume reached approximately 200 mm^3 Compounds were formulated in 2% DMSO, 5% Tween80, 20% PEG400, 73% HPMC. Administration of compound or vehicle was initiated on the day following randomization and continued for the indicated time. Tumors were measured twice a week throughout the treatment period using a pair of calipers and tumor volumes were calculated according to the formula V=L×W^2/2 (V: volume, mm^3; L: length, mm. W: width, […]). Tumor growth inhibition was calculated based on the mean tumor volume measured at the end of the treatment period according to the formula % TGI=100−mean tumor volume of treatment group/mean tumor volume of control group×100.
For orientation: A xenograft is tissue or cells of one species grown in another, often human tumour cells in immunodeficient mice.

Where [1] appears, read: Homo sapiens, NCI-H929, 24 hours.

Marks after values point to notes of the source that are not given here.

T1 sequence (P50750 whole entry): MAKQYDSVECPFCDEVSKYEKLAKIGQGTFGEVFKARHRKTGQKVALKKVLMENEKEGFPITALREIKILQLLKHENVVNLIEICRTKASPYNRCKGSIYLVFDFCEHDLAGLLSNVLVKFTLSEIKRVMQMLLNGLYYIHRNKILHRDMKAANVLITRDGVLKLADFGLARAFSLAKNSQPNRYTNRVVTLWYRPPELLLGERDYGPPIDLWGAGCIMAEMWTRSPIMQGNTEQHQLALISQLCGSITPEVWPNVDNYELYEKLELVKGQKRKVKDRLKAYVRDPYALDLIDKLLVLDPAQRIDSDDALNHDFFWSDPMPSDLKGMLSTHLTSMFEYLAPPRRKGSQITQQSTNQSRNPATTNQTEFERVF
T1 sequence (O60563 whole entry partner): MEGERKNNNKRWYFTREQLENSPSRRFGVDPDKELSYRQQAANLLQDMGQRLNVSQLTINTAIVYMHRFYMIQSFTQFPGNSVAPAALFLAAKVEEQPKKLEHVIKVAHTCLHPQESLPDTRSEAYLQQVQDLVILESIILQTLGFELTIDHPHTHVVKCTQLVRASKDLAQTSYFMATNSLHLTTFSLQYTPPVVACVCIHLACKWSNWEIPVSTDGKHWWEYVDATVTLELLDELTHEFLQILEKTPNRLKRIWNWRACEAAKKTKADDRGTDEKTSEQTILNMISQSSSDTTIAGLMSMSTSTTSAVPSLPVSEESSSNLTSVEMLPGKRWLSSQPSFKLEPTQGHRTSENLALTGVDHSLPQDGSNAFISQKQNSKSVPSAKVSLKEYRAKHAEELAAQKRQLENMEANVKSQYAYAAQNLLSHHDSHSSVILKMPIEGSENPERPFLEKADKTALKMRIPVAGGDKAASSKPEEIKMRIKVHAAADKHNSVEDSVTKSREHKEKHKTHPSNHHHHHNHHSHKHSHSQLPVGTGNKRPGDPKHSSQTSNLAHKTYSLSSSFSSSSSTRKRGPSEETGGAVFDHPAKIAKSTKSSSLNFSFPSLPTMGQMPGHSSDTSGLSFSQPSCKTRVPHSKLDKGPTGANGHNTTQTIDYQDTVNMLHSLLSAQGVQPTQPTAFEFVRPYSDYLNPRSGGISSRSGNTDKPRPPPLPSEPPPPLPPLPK

For the molecule “1-[(5-fluoropyridin-3-yl)methyl]-6-{2-[1-(methylsulfonyl)piperidin-4-yl]-1H-pyrrolo[2,3-b]pyridin-4-yl}-1H-benzimidazole [Example 13]”, on CDK9/Cyclin T1, 26 nM corresponded to half-maximal inhibition (IC50). Moreover, the concentration for a half-maximal effect (EC50) in the series on H929 cells (24 hours) was determined as 29 nM; in the series with A431 cells (24 hours), 583 nM.

In the case of `Fc1cccc(CN2CCc3ccc(-c4ccnc5[nH]c(C6CCNCC6)cc45)cc32)c1` [Example 1, 4-[1-(3-fluorobenzyl)-2,3-dihydro-1H-indol-6-yl]-2-(piperidin-4-yl)-1H-pyrrolo[2,3-b]pyridine], the midpoint of inhibition at CDK9/Cyclin T1, the IC50, lay at 64 nM. Moreover, in the series with H929 xenograft tumors (3.75 mg/kg), the “% TGD (tumor growth delay)” value is reported as 55%, the “% TGI” value is given as 64** % and the “% removed from study” value was found to be 0%. In addition, in the series on H929 xenograft tumors (7.50 mg/kg), the “% TGD (tumor growth delay)” value is on record as 66*** %, the “% TGI” value is 66*** % and the “% removed from study” value turned out to be 11%. The half-maximal effective concentration (EC50) in the series on H929 cells (setting [1]) was 490 nM. The same molecule yielded an EC50 in the series on A431 cells (Homo sapiens, A-431, 24 hours) of 550 nM.

Regarding `Fc1cccc(Cn2cnc3ccc(-c4ccnc5[nH]c(C6CCNCC6)cc45)cc32)c1` [Example 2, 1-(3-fluorobenzyl)-6-[2-(piperidin-4-yl)-1H-pyrrolo[2,3-b]pyridin-4-yl]-1H-benzimidazole], the IC50 at CDK9/Cyclin T1 turned out to be 9 nM. In addition, the EC50 with H929 cells (setting [1]) was found to be 44 nM; in the series on A431 cells (Homo sapiens, A-431, 24 hours), 12 nM.

Regarding `N#Cc1cn(Cc2ccccc2)c2cc(-c3ccnc4[nH]c(C5CCNCC5)cc34)ccc12` [Example 3, 1-benzyl-6-[2-(piperidin-4-yl)-1H-pyrrolo[2,3-b]pyridin-4-yl]-1H-indole-3-carbonitrile], at CDK9/Cyclin T1, 24 nM corresponded to half-maximal inhibition (IC50). The concentration for a half-maximal effect (EC50) was determined as 79 nM with H929 cells (setting [1]) and 24 nM in the series on A431 cells (Homo sapiens, A-431, 24 hours).

For `c1cc(-c2ccc3ncn(CC4CCOCC4)c3c2)c2cc(C3CCNCC3)[nH]c2n1` [Example 5, 6-{2-(piperidin-4-yl)-1H-pyrrolo[2,3-b]pyridin-4-yl}-1-(tetrahydro-2H-pyran-4-ylmethyl)-1H-benzimidazole], the 50% inhibitory concentration (IC50) against CDK9/Cyclin T1 was determined as 40 nM. Moreover, in the series on H929 xenograft tumors (7.50 mg/kg), the “% TGD (tumor growth delay)” value worked out at 20%, the “% TGI” value is reported as 39% and the “% removed from study” value was found to be 22%. Also, in the series with H929 xenograft tumors (15 mg/kg), the “% TGD (tumor growth delay)” value is on record as 31** %, the “% TGI” value was 58** % and the “% removed from study” value was determined as 11%. Besides, the response in the series with H929 cells (setting [1]) was half-maximal at 180 nM (EC50).

`N#Cc1cn(Cc2cccc(F)c2)c2cc(-c3ccnc4[nH]c(C5CCNCC5)cc34)ccc12` [Example 8, 1-(3-fluorobenzyl)-6-[2-(piperidin-4-yl)-1H-pyrrolo[2,3-b]pyridin-4-yl]-1H-indole-3-carbonitrile] yielded a half-maximal inhibitory concentration (IC50) on CDK9/Cyclin T1 of 18 nM. Besides, the EC50 in the series with H929 cells (setting [1]) was determined as 72 nM; in the series with A431 cells (Homo sapiens, A-431, 24 hours) it was 52 nM.

The molecule `Fc1cccc(Cn2ccc3cc(F)c(-c4ccnc5[nH]c(C6CCNCC6)cc45)cc32)c1` [Example 9, 4-[5-fluoro-1-(3-fluorobenzyl)-1H-indol-6-yl]-2-(piperidin-4-yl)-1H-pyrrolo[2,3-b]pyridine] registered a concentration for half-maximal inhibition (IC50) on CDK9/Cyclin T1 of 50 nM. For the same molecule, the EC50 in the series on H929 cells (setting [1]) came to 100 nM; in the series with A431 cells (Homo sapiens, A-431, 24 hours) it was 110 nM.

On to `N#Cc1cn(Cc2cccc(F)c2)c2cc(-c3ccnc4[nH]c(C5CCN(CC(O)CO)CC5)cc34)ccc12` (centres unmarked) [Example 10, 6-{2-[1-(2,3-dihydroxypropyl)piperidin-4-yl]-1H-pyrrolo[2,3-b]pyridin-4-yl}-1-(3-fluorobenzyl)-1H-indole-3-carbonitrile], for which the IC50 against CDK9/Cyclin T1 was found to be 18 nM. Moreover, the concentration for a half-maximal effect (EC50) amounted to 52.3 nM with H929 cells (setting [1]) and 71 nM with A431 cells (Homo sapiens, A-431, 24 hours).

Turning to `Fc1cncc(Cn2cnc3ccc(-c4ccnc5[nH]c(C6CCNCC6)cc45)cc32)c1` [Example 12, 1-[(5-fluoropyridin-3-yl)methyl]-6-[2-(piperidin-4-yl)-1H-pyrrolo[2,3-b]pyridin-4-yl]-1H-benzimidazole], the IC50 at CDK9/Cyclin T1 stood at 30 nM. Besides, the EC50 amounted to 75 nM in the series on H929 cells (setting [1]) and 130 nM in the series with A431 cells (Homo sapiens, A-431, 24 hours).

In the case of `Fc1cccc(Cn2cnc3ccc(-c4ccnc5[nH]c(C6=CCNCC6)cc45)cc32)c1` [Example 14, 1-(3-fluorobenzyl)-6-[2-(1,2,3,6-tetrahydropyridin-4-yl)-1H-pyrrolo[2,3-b]pyridin-4-yl]-1H-benzimidazole], 14 nM corresponded to half-maximal inhibition at CDK9/Cyclin T1 (IC50). Also, the 50% effective concentration (EC50) with H929 cells (setting [1]) was determined as 7 nM; in the series on A431 cells (Homo sapiens, A-431, 24 hours) it was 4 nM.

`CS(=O)(=O)N1CC=C(c2cc3c(-c4ccc5ncn(Cc6cccc(F)c6)c5c4)ccnc3[nH]2)CC1` [Example 15, 1-(3-fluorobenzyl)-6-{2-[1-(methylsulfonyl)-1,2,3,6-tetrahydropyridin-4-yl]-1H-pyrrolo[2,3-b]pyridin-4-yl}-1H-benzimidazole] returned an IC50 against CDK9/Cyclin T1 of 43 nM. Also, the EC50 with H929 cells (setting [1]) worked out at 7 nM; with A431 cells (Homo sapiens, A-431, 24 hours), 6 nM.

`CNC(=O)N1CC=C(c2cc3c(-c4ccc5ncn(Cc6cccc(F)c6)c5c4)ccnc3[nH]2)CC1` [Example 24, 4-{4-[1-(3-fluorobenzyl)-1H-benzimidazol-6-yl}-1H-pyrrolo[2,3-b]pyridin-2-yl]-N-methyl-3,6-dihydropyridine-1(2H)-carboxamide] yielded an IC50 at CDK9/Cyclin T1 of 35 nM. Moreover, the half-maximal effective concentration (EC50) with H929 cells (setting [1]) worked out at 27 nM; in the series with A431 cells (Homo sapiens, A-431, 24 hours), 13 nM.

`OCC(O)CN1CC=C(c2cc3c(-c4ccc5ncn(Cc6cccc(F)c6)c5c4)ccnc3[nH]2)CC1` (centres unmarked) [Example 25, 3-[4-{4-[1-(3-fluorobenzyl)-1H-benzimidazol-6-yl]-1H-pyrrolo[2,3-b]pyridin-2-yl}-3,6-dihydropyridin-1(2H)-yl]propane-1,2-diol] came in with a 50% inhibitory concentration (IC50) against CDK9/Cyclin T1 of 19 nM. In addition, the EC50 in the series on H929 cells (setting [1]) is 49 nM; in the series with A431 cells (Homo sapiens, A-431, 24 hours), 43 nM.

`CC(=O)Nc1ccc(CN2CC=C(c3cc4c(-c5ccc6ncn(Cc7cccc(F)c7)c6c5)ccnc4[nH]3)CC2)cc1` [Example 26, N-(4-{[4-{4-[1-(3-fluorobenzyl)-1H-benzimidazol-6-yl]-1H-pyrrolo[2,3-b]pyridin-2-yl}-3,6-dihydropyridin-1(2H)-yl]methyl}phenyl)acetamide] showed a concentration for half-maximal inhibition (IC50) at CDK9/Cyclin T1 of 43 nM. In addition, the EC50 in the series with H929 cells (setting [1]) amounted to 26 nM; in the series with A431 cells (Homo sapiens, A-431, 24 hours), 6 nM.

Turning to `Fc1cccc(Cn2ccc3ncc(-c4ccnc5[nH]c(C6CCNCC6)cc45)cc32)c1` [Example 29, 1-(3-fluorobenzyl)-6-[2-(piperidin-4-yl)-1H-pyrrolo[2,3-b]pyridin-4-yl]-1H-pyrrolo[3,2-b]pyridine], it took 28 nM to reach half-maximal inhibition against CDK9/Cyclin T1 (IC50). In addition, the concentration for a half-maximal effect (EC50) with H929 cells (setting [1]) was 87 nM; in the series with A431 cells (Homo sapiens, A-431, 24 hours), 33 nM.

With `Fc1cncc(Cn2ccc3ccc(-c4ccnc5[nH]c(C6=CCNCC6)cc45)nc32)c1` [Example 51, 1′-[(5-fluoropyridin-3-yl)methyl]-2-(1,2,3,6-tetrahydropyridin-4-yl)-1H,1′H-4,6′-bipyrrolo[2,3-b]pyridine], the IC50 against CDK9/Cyclin T1 came to 14 nM. The EC50 was 90 nM in the series with H929 cells (setting [1]) and 11 nM in the series with A431 cells (Homo sapiens, A-431, 24 hours).
